Reference: ChEMBL document CHEMBL6182842, “Progress in the development of macrophage migration inhibitory factor small-molecule inhibitors” (Eur J Med Chem, 2025)

Experiments:
[1] = target: T1, Macrophage migration inhibitory factor (Homo sapiens, UniProt P14174); assay: Inhibition of human recombinant MIF tautomerase activity
T1 sequence (P14174 whole entry): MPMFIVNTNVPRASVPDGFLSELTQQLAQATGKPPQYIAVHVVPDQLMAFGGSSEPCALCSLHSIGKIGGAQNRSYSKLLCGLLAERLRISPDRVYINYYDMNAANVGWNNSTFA

[2] = target: T2, D-dopachrome decarboxylase (Homo sapiens, UniProt P30046); assay: Binding affinity to human DDT extracted from Escherichia coli assessed as inhibition constant
T2 sequence (P30046 whole entry): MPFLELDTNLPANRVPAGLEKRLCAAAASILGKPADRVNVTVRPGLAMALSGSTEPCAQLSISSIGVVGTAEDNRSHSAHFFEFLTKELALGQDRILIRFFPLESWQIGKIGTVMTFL

[3] = target: T1, Macrophage migration inhibitory factor; assay: Inhibition of human recombinant MIF incubated for 30 mins by microplate reader assay
[4] = target: T1, Macrophage migration inhibitory factor; assay: Inhibition of human recombinant MIF extracted from Escherichia coli BL21 (DE3)
[5] = target: T1, Macrophage migration inhibitory factor; assay: Binding affinity to human recombinant MIF extracted from Escherichia coli BL21 (DE3) assessed as inhibition constant
[6] = target: T3, Macrophage migration inhibitory factor (Homo sapiens) (UniProt P14174); assay: Potency index, ratio of ISO-1 IC50 to test compound IC50 for inhibition of human recombinant MIF
T3 sequence (whole entry): T1 sequence (P14174 whole entry)

[7] = target: T1, Macrophage migration inhibitory factor; assay: Inhibition of human full length MIF extracted from Escherichia coli BL21 (DE3) by UV absorbance based analysis
[8] = target: T1, Macrophage migration inhibitory factor; assay: Inhibition of MIF (unknown origin)
[9] = target: T2, D-dopachrome decarboxylase; assay: Inhibition of wild type human DDT tautomerase activity at 100 uM relative to control
[10] = target: T1, Macrophage migration inhibitory factor; assay: Binding affinity to wild type human MIF extracted from Escherichia coli BL 21 (DE3) assessed as inhibition constant
Homo sapiens = organism: Homo sapiens; assay: Selectivity ratio of Ki for wild type human DDT to Ki for wild type human MIF
[11] = target: T2, D-dopachrome decarboxylase; assay: Inhibition of human DDT extracted from Escherichia coli

Compound `O=C1/C(=C/c2ccccc2)CCc2ccccc21` has an IC50 [1] of 127 µM.

`O=C(O)c1cccc(-c2cc(C(=O)O)ncc2C(=O)O)c1` showed a Ki [2] of 33 µM.

`O=C(CC1(O)C(=O)N(Cc2ccccc2Cl)c2ccccc21)C1Cc2ccccc2OC1=O` (centres undefined) was tested, and the IC50 [3] was 7.55 µM.

Compound `O=C1/C(=C/c2ccco2)CCc2ccccc21` has an IC50 [1] of 57.7 µM.

In the case of `O=C1/C(=C/c2ccncc2)CCc2ccccc21`, the IC50 [1] is reported as 21 µM.

Compound `C[C@@H]1O[C@@H](O[C@H]2[C@H](Oc3cc(O)c4c(c3)O[C@@H](c3ccc(O)cc3)CC4=O)O[C@H](CO)[C@@H](O)[C@@H]2O)[C@H](O)[C@H](O)[C@H]1O` has an IC50 [4] of 51.4 µM, a Ki [5] of 43.5 µM and a Ratio IC50 [6] of 13.3.

`COc1ccc(C(=O)Nc2nnc(-c3ccco3)o2)c(OC)c1` gave an IC50 [7] of 6.87 µM.

With `O=c1c(O)c(-c2ccc(O)cc2O)oc2cc(O)cc(O)c12` [MORIN] the IC50 [4] was 11 µM, the Ki [5] was 8.95 µM and the Ratio IC50 [6] was 6.3.

`COC(=O)c1ccc(O)c2nc3c(C=O)c(O)cc(O)c3nc12` [LOMOFUNGIN] was tested, and the IC50 [8] was 0.47 µM.

`Cc1c(C(=O)c2ccc(Cl)cc2)oc2cc(N)ccc12` was tested, and the IC50 [3] was 14 µM.

With `O=C(O)c1ccc(C(=O)O)nc1` [PYRIDINE-2,5-DICARBOXYLIC ACID] the inhibition [9] was less than 25%, the Ki [10] was 17.2 µM and the Ratio Ki (Homo sapiens) was 79.

`Cc1cc(C(c2ccccn2)N2CCOCC2)c(NC(=O)c2ccco2)s1` (centres undefined) gave an IC50 [7] of 6.44 µM.

Work on `Cn1cccc1/C=C1\CCc2ccccc2C1=O` yielded an IC50 [1] of 23.8 µM.

Work on `O=C1/C(=C/c2ccc3cc[nH]c3c2)CCc2ccccc21` yielded an IC50 [1] of 58.8 µM.

`COc1cc(/C=C2\CCc3cc(O)ccc3C2=O)ccc1O` showed an IC50 [1] of 4.31 µM.

Compound `COc1ccccc1/C=C1\COc2ccccc2C1=O` has an IC50 [1] of 4.31 µM.

With `O=C1/C(=C/c2cccnc2)CCc2ccccc21` the IC50 [1] was 20.3 µM.

Compound `O=c1c(-c2c(O)cc(O)c3c(=O)cc(-c4ccc(O)cc4)oc23)c(-c2ccc(O)cc2)oc2cc(O)cc(O)c12` has an IC50 [4] of 13.3 µM and a Ki [5] of 10.1 µM.

In the case of `c1ccc(-c2ccncc2)cc1`, the inhibition [9] is reported as greater than 100%.

For `O=C(O)c1ccc(C(=O)O)cc1`, the inhibition [9] was greater than 75%.

`O=C1/C(=C/c2ccccc2)CCCc2ccccc21` gave an IC50 [1] of 84 µM.

`Cc1ccc(/C=C2\CCc3ccccc3C2=O)cc1` showed an IC50 [1] of 16.5 µM.

With `Cc1cc(-c2ccccc2)ncn1` the IC50 [11] was greater than 500 µM.

For `O=C(O)c1cccnc1`, the inhibition [9] was greater than 100%.

`O=c1c(O)c(-c2ccc(O)cc2)oc2cc(O)cc(O)c12` [KAEMPFEROL] showed an IC50 [4] of 189 µM and a Ratio IC50 [6] of 17.2.

For `O=C(O)c1ccccn1`, the inhibition [9] was greater than 75%.

Compound `O=c1oc2ccc(F)cc2cc1-c1nc(-c2cccs2)no1` has an IC50 [3] of 7.57 µM.

Compound `CC(=O)NS(=O)(=O)c1ccc(NC(=O)CC(C)(C)C)cc1` has an IC50 [3] of 1.22 µM.

Compound `CCC(CC)c1nnc(NC(=O)Oc2ccccc2)s1` has an IC50 [3] of 12 µM.

`O=C(CSc1cc(-c2ccccc2)ncn1)c1ccc(O)cc1O` gave an IC50 [3] of 9.49 µM.

`Nc1ccccc1NC(=O)c1ccc(NC(=O)Cc2ccc(N3Cc4ccc(O)cc4OC3=O)cc2)cc1` showed an IC50 [8] of 0.81 µM.
